Assay results as given in ChEMBL document CHEMBL5325479, “Synthesis and biological evaluation of sulfonylpyridine derivatives as potential anti-chlamydia agents” (Bioorg Med Chem, 2023).
Converted amounts (≈) assume the structure as drawn. The source made the active and inactive calls. The calls are words filed in the database; no cut-off is given here.

System: Chlamydia trachomatis
Test: Anti-chlamydia activity against Chlamydia trachomatis serovar L2 infected in human HEp-2 cells assessed as inhibition of inclusion growth measured treated 8 hrs POI followed measured after 16 hrs by immunofluorescence assay
Type: functional, organism-based
Conditions: serovar L2, HEp-2

Structure (SMILES) | IC50 [µg/mL]
Cc1ccc(SCCNC(=O)C(C)(C)S(=O)(=O)c2ccc(C(F)(F)F)cn2)cc1 | 23.5 (≈ 52.6 µM)
Cc1ccccc1OCCCNC(=O)C(C)(C)S(=O)(=O)c1ccc(C(F)(F)F)cn1 | 20.4 (≈ 46 µM)
CC(C)(C(=O)NCCCSc1ccc(Cl)cc1)S(=O)(=O)c1ccc(Br)cn1 | 2.33 (≈ 4.74 µM)
CC(C)(C(=O)NCCCSc1cccc(Cl)c1)S(=O)(=O)c1ccc(C(F)(F)F)cn1 | 14.8 (≈ 30.7 µM)
Cc1ccc(OCCNC(=O)C(C)(C)S(=O)(=O)c2ccc(C(F)(F)F)cn2)cc1 | 29.8 (≈ 69.3 µM)
Cc1ccccc1OCCNC(=O)C(C)(C)S(=O)(=O)c1ccc(C(F)(F)F)cn1 | 28.9 (≈ 67.2 µM)
COc1ccc(OCCNC(=O)C(C)(C)S(=O)(=O)c2ccc(C(F)(F)F)cn2)cc1 | 42.2 (≈ 94.4 µM)
Cc1ccccc1SCCCNC(=O)C(C)(C)S(=O)(=O)c1ccc(C(F)(F)F)cn1 | 32.5 (≈ 70.7 µM)
CC(C)(C(=O)NCCSc1cccc(Cl)c1)S(=O)(=O)c1ccc(C(F)(F)F)cn1 | 17.9 (≈ 38.3 µM)
CC(C)(C(=O)NCCNc1ccccc1)S(=O)(=O)c1ccc(C(F)(F)F)cn1 | 14.2 (≈ 34.3 µM)
Cc1ccccc1SCCNC(=O)C(C)(C)S(=O)(=O)c1ccc(C(F)(F)F)cn1 | 17.8 (≈ 39.8 µM)
CC(C)(C(=O)NCCCOc1ccc(Cl)cc1)S(=O)(=O)c1ccc(C(F)(F)F)cn1 | 26.1 (≈ 56.2 µM)
Cc1ccccc1OCCNC(=O)C(C)(C)S(=O)(=O)c1ccc(Br)cn1 | 18.3 (≈ 41.5 µM)
CC(C)(C(=O)NCCCSc1ccccc1)S(=O)(=O)c1ccc(C(F)(F)F)cn1 | 31.4 (≈ 70.3 µM)
CC(C)(C(=O)NCCNc1ccccc1)S(=O)(=O)c1ccc(Br)cn1 | 11.7 (≈ 27.3 µM)
Cc1ccccc1OCCCNC(=O)C(C)(C)S(=O)(=O)c1ccc(Br)cn1 | 3.47 (≈ 7.62 µM)
CC(C)(C(=O)NCCCSc1ccc(Cl)cc1)S(=O)(=O)c1ccc(C(F)(F)F)cn1 | 3.88 (≈ 8.07 µM)
Cc1ccc(SCCCNC(=O)C(C)(C)S(=O)(=O)c2ccc(Br)cn2)cc1 | 16.1 (≈ 34.2 µM)
COc1ccccc1OCCNC(=O)C(C)(C)S(=O)(=O)c1ccc(C(F)(F)F)cn1 | 39.8 (≈ 89.2 µM)

System: Chlamydia trachomatis
Test: Anti-chlamydia activity against Chlamydia trachomatis serovar L2 infected in human HEp-2 cells assessed as inhibition of inclusion growth measured at 0.78 to 50 ug/ml treated 8 hrs POI followed measured after 16 hrs by immunofluorescence assay
Type: functional, organism-based
Conditions: dose 0.78-50 µg/ml

Structure (SMILES) | inhibition
CC(C)(C(=O)NCCOc1ccc([N+](=O)[O-])cc1)S(=O)(=O)c1ccc(C(F)(F)F)cn1 | inactive
COc1ccccc1OCCCNC(=O)C(C)(C)S(=O)(=O)c1ccc(C(F)(F)F)cn1 | inactive
CC(=O)N(CCNC(=O)C(C)(C)S(=O)(=O)c1ccc(C(F)(F)F)cn1)c1ccccc1 | inactive
CC(C)(C(=O)NCCc1ccncc1)S(=O)(=O)c1ccc(C(F)(F)F)cn1 | inactive
CC(C)(C(=O)NCCCC1=NC2C=CC=CC2=N1)S(=O)(=O)c1ccc(C(F)(F)F)cn1 (stereo unspecified) | inactive
CN(CCSc1ccc(Cl)cc1)C(=O)C(C)(C)S(=O)(=O)c1ccc(C(F)(F)F)cn1 | inactive
Cc1ccc(OCCNC(=O)C(C)(C)S(=O)(=O)c2ccc(Br)cn2)cc1 | inactive

System: HEp-2
Test: Cytotoxicity against human HEp-2 cells assessed as cell viability at 4 to 128 ug/ml measured after 24 hrs by XTT assay
Type: toxicity, cell-based
Conditions: hep-2, 24 h, dose 4-128 µg/ml

Structure (SMILES) | Activity
CC(C)(C(=O)NCCCSc1ccc(Cl)cc1)S(=O)(=O)c1ccc(Br)cn1 | Toxic

System: not listed separately
Test: Cytotoxicity against human HEC-1-A cells assessed as cell survival at 128 ug/ml measured after 24 hrs by XTT assay
Type: toxicity, cell-based
Conditions: at 128 µg/mL, read-out: Survival

Structure (SMILES) | viability at 24 h, 128 ug/ml [%]
CC(C)(C(=O)NCCCSc1ccc(Cl)cc1)S(=O)(=O)c1ccc(Br)cn1 | 100

System: not listed separately
Test: Stability of the compound in simulated gastric fluid at pH 1.2 measured after 24 hrs by HPLC analysis
Type: ADME
Conditions: simulated gi fluid, pH 1.2, 24 h

Structure (SMILES) | Stability
CC(C)(C(=O)NCCCSc1ccc(Cl)cc1)S(=O)(=O)c1ccc(Br)cn1 | Stable

System: Staphylococcus aureus
Test: Antibacterial activity against Staphylococcus aureus USA 300 JE2 assessed as bacterial death measured upto 256 ug/ml
Type: functional, organism-based
Conditions: dose <= 256.0 µg/ml

Structure (SMILES) | Activity
CC(C)(C(=O)NCCCSc1ccc(Cl)cc1)S(=O)(=O)c1ccc(Br)cn1 | inactive

System: Escherichia coli
Test: Antibacterial activity against Escherichia coli K12 assessed as bacterial death measured upto 256 ug/ml
Type: functional, organism-based
Conditions: dose <= 256.0 µg/ml

Structure (SMILES) | Activity
CC(C)(C(=O)NCCCSc1ccc(Cl)cc1)S(=O)(=O)c1ccc(Br)cn1 | inactive
